# Laboratory results: US8624027B2, “Combination therapy for treating cancer and diagnostic assays for use therein” (AbbVie Inc., priority 2005, dated 2014)
# Test system: BAX and BAK
# Assay: BAX and BAK activation, immunoprecipitation of active conformers
# Type: cell-based, human
# Conditions: HCT116, D54MG, SW620, EJ1 cells made polyploid with 200 nM AZD1152 72 hours, then 1 μM ABT-263
# Protocol: HCT116 cells (FIG. 11A) were treated with DMSO or 200 nM AZD1152 for 72 hours followed by 2 hours with 1 μM ABT-263. Conformationally active BAK or BAX was immunoprecipitated and detected by immunoblotting. D54MG and HCT116 cells (FIG. 11B) were treated DMSO or 200 nM AZD1152 for 72 hours prior to the addition of 1 μM ABT-263 for 4 hours. Conformationally active BAK or BAX was immunoprecipitated and detected by immunoblotting (top and middle panel). Cell lysates were also fractionated and Cytochrome C release into the cytosolic fraction was detected by immunoblotting. HCT116, SW620, and D54MG cells (FIG. 11C) were treated with DMSO (untreated) or 200 nM AZD1152 (AZD1152) for 72 hours and the expression of Bcl-2 network components were detected by immunoblotting (FIG. 11D-FIG. 11E) HCT116 cells were treated as in FIG. 11B. Endogenous Bcl-XL and Mcl-1 were immunoprecipitated, and the Bcl-2 network components in the immunecomplexes were detected by immunoblotting.
# FIG. 14 BAK and BAX activation in tumor cell lines. D54MG, SW620, and EJ1 cells were treated as in FIG. 17B. Conformationally active BAK and BAX was immunoprecipitated and detected by immunoblotting.
# Cell lysates were either prepared using a CHAPS lysis buffer (10 mM HEPES, pH 7.4, 150 mM NaCl, 1% CHAPS) or a cell extraction buffer containing 1% Triton X-100, 0.1% SDS, and 0.5% deoxycholate (Invitrogen). […]
structure (smiles),measurement,value
"CC1(C)CCC(c2ccc(Cl)cc2)=C(CN2CCN(c3ccc(C(=O)NS(=O)(=O)c4ccc(N[C@H](CCN5CCOCC5)CSc5ccccc5)c(S(=O)(=O)C(F)(F)F)c4)cc3)CC2)C1 [Example 1, N-(4-(4-((2-(4-chlorophenyl)-5,5-dimethyl-1-cyclohex-1-en-1-yl)methyl)piperazin-1-yl)benzoyl)-4-(((1R)-3-(morpholin-4-yl)-1-((phenylsulfanyl)methyl)propyl)amino)-3-((trifluoromethyl)sulfonyl)benzenesulfonamide]",BAX and BAK activation in polyploid cells,rapidly and synergistically induced BAX and BAK activation
